Laboratory results from ChEMBL document CHEMBL1131998, “Synthesis and biological evaluation of 1,1-difluoro-2-(tetrahydro-3-furanyl)ethylphosphonic acids possessing a N9-purinylmethyl functional group at the ring. a new class of inhibitors for purine nucleoside phosphorylases” (Bioorg Med Chem Lett, 1999).

Assays:
[1] = target: T1, Purine nucleoside phosphorylase (Homo sapiens, UniProt P00491); experiment: (§1) Compound was evaluated for inhibition of PNP-catalyzed inosine phosphorylation in human erythrocyte; type: functional
T1 sequence (P00491 whole entry): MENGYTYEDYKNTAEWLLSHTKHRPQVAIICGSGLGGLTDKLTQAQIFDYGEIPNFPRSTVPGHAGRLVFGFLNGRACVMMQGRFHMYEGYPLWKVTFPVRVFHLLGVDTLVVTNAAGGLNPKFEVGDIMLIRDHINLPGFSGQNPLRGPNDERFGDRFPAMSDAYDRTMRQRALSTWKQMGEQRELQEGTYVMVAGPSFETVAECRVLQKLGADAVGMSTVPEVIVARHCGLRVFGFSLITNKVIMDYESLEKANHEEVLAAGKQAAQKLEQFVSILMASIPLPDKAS

[2] = target: T1, Purine nucleoside phosphorylase; experiment: as §1

Row | Compound | IC50 [1] | Ki [2]
1 | Nc1nc2c(ncn2CCCCC(F)(F)P(=O)(O)O)c(=O)[nH]1 | 380 nM | 53 nM
2 | O=c1[nH]cnc2c1ncn2CC[C@@H]1C[C@H]1C(F)(F)P(=O)(O)O | 340 nM | 8.8 nM
3 | O=P(O)(O)C(F)(F)C[C@H]1COC[C@H]1Cn1cnc2c(O)ncnc21 | 88 nM | 15.2 nM
4 | O=P(O)(O)C(F)(F)C[C@H]1COC[C@@H]1Cn1cnc2c(O)ncnc21 | 320 nM | 
5 | Nc1nc2c(ncn2CC[C@@H]2C[C@H]2C(F)(F)P(=O)(O)O)c(=O)[nH]1 (racemic) | 330 nM | 28.2 nM
